Measurements published in patent US20030195152A1, “Polymeric conjugates of antitumor agents” (priority 2000, published 2003).

System: human colon carcinoma (HT29)
Experiment: Antitumor activity on human colon carcinoma (HT29) transplanted in nude mice
Format: in vivo
Details: for TI % (tumor inhibition %): calculated at day 46, HT29 sc in nude mice
Experimental: Campound (A1a) was tested on human colon carcinoma (HT29) transplanted in nude mice, in comparison with the free drug 7-ethyl-10-hydroxycamptothecin (12) by i.v. route. A1a was found non toxic at all tested doses and gave 98% tumor inhibition at the highest tested dose of 20 mg/kg (Table 1).

[1] = dose 10 mg/kg i.v. q4dx6, total dose 60 mg/kg
[2] = dose 20 mg/kg i.v. q4dx6, total dose 120 mg/kg
[3] = dose 30 mg/kg i.v. q4dx6, total dose 180 mg/kg
[4] = dose 40 mg/kg i.v. q4dx6, total dose 240 mg/kg

| Molecule | Tox (number of mice died for toxicity/total number mice) [1] | TI % (tumor inhibition %) [1] [%] | Tox (number of mice died for toxicity/total number mice) [2] | TI % (tumor inhibition %) [2] [%] | toxicity (all tested doses, i.v., nude mice bearing HT29) | TI % (tumor inhibition %) (dose 20 mg/kg i.v. q4dx6, total dose 120 mg/kg, listed as Ala) [%] | Tox (number of mice died for toxicity/total number mice) [3] | TI % (tumor inhibition %) [3] [%] | Tox (number of mice died for toxicity/total number mice) [4] | TI % (tumor inhibition %) [4] [%] |
| --- | --- | --- | --- | --- | --- | --- | --- | --- | --- | --- |
| CCc1c2c(nc3ccc(O)cc13)-c1cc3c(c(=O)n1C2)COC(=O)[C@]3(O)CC [Compound 12, 7-ethyl-10-hydroxycamptothecin, reference compound] | 0/7 | 67 | 3/7 | 97 | – | – | – | – | – | – |
| Copolymer of N-(2-hydroxypropyl)methacryloylamide, 7-ethyl-10-hydroxy-20-O-[N-methacryloyl-6-aminohexanoyl-(methionyl-sulfoxide)-glycyl-(S-benzyl-cysteinyl)-leucyl-glycyl]camptothecin and N-(2-hydroxypropyl)methacryloylglycinamide [Compound A1a] | 0/7 | 85 | 0/7 | 98 | non toxic | 97 | 0/7 | 97 | 0/7 | 97 |
